Test results reported in patent US9416115B2, “Fused heterocyclic compounds as ion channel modulators” (Gilead Sciences, Inc., priority 2013, dated 2016).

target: hNav1.7 (Homo sapiens, UniProt Q15858); test: Voltage-dependent inhibition of the Nav1.7 sodium channel; format: cell-based; conditions: voltage-dependent block of peak current
Procedure: HEK-293 cells stably expressing wild-type (WT) hNav1.7 were obtained from Scottish Biomedical (Glasgow, Scotland, United Kingdom). Cells are maintained with standard tissue culture procedures and stable channel expression is maintained with 500 ug/mL G418 in the culture medium. Unless otherwise noted, all reagents are purchased from Sigma-Aldrich (St Louis, Mo., U.S.A.).
Assays measuring Voltage-Dependent Block (VDB) of Nav1.7 are performed on an automated electrophysiology platform, QPatch 16X or QPatch HT (Sophion Bioscience, Copenhagen, Denmark), using the whole cell patch clamp technique to measure currents through the cell membrane. Series resistance compensation is set to 100% and series resistance and whole-cell compensation are performed automatically. Currents stored in the Sophion Bioscience Oracle database (Sophion Bioscience, Copenhagen, Denmark). Analysis is performed using QPatch Assay software and data are compiled in Excel 2010 (Microsoft, Seattle, Wash., U.S.A.).
The internal (pipette) solution consists of (in mM) 105 CsF, 10 NaF, 20 CsCl, 2 EGTA, 10 HEPES, 10 Dextrose with a pH of 7.35 and osmolarity of 300 mOsmol/kg. The external (bath) solution contains in (mM): 140 NaCl, 4 KCl, 1.8 CaCl2, 1 MgCl2, 10 dextrose, 10 HEPES, with a pH of 7.35 and osmolarity of 310 mOsmol/kg. Experiments are carried out at 23-25° C.
Compound stocks are routinely made by the Gilead Sample Bank in vials to 10 mM in dimethyl sulfoxide (DMSO). In some cases, when compounds are not soluble in DMSO, they are made in 100% ethanol. Stocks are sonicated as necessary. Compounds are diluted in extracellular solution using a MicroLab Nimbus (Hamilton Robotics, Reno, Nev.) to 1 μM in glass vials and transferred to glass well plates before robotic addition to the cells.
Cells are allowed to stabilize for 10 min after establishment of the whole-cell configuration before current is measured. The test compound is applied 3 times at 120 second intervals to allow for equilibration. Currents were leak subtracted using a P/4 procedure, low-pass Bessel filtered at 5 kHz and digitized at 25 kHz. Results are presented as mean percentage inhibition.
Voltage-dependent block of Nav1.7 peak current was measured during a voltage step to 0 mV (20 ms) following a voltage step pre-conditioning steps (−60 mV for 10 sec followed by −120 mV for 10 ms). The holding potential was −120 mV and this voltage protocol induces half maximal inactivation of Nav1.7. The voltage protocol for VDB was performed every 45 seconds in the absence and presence of compound and percentage inhibition was calculated with respect to the compound free condition.

Chain of hNav1.7 (Q15858 whole entry): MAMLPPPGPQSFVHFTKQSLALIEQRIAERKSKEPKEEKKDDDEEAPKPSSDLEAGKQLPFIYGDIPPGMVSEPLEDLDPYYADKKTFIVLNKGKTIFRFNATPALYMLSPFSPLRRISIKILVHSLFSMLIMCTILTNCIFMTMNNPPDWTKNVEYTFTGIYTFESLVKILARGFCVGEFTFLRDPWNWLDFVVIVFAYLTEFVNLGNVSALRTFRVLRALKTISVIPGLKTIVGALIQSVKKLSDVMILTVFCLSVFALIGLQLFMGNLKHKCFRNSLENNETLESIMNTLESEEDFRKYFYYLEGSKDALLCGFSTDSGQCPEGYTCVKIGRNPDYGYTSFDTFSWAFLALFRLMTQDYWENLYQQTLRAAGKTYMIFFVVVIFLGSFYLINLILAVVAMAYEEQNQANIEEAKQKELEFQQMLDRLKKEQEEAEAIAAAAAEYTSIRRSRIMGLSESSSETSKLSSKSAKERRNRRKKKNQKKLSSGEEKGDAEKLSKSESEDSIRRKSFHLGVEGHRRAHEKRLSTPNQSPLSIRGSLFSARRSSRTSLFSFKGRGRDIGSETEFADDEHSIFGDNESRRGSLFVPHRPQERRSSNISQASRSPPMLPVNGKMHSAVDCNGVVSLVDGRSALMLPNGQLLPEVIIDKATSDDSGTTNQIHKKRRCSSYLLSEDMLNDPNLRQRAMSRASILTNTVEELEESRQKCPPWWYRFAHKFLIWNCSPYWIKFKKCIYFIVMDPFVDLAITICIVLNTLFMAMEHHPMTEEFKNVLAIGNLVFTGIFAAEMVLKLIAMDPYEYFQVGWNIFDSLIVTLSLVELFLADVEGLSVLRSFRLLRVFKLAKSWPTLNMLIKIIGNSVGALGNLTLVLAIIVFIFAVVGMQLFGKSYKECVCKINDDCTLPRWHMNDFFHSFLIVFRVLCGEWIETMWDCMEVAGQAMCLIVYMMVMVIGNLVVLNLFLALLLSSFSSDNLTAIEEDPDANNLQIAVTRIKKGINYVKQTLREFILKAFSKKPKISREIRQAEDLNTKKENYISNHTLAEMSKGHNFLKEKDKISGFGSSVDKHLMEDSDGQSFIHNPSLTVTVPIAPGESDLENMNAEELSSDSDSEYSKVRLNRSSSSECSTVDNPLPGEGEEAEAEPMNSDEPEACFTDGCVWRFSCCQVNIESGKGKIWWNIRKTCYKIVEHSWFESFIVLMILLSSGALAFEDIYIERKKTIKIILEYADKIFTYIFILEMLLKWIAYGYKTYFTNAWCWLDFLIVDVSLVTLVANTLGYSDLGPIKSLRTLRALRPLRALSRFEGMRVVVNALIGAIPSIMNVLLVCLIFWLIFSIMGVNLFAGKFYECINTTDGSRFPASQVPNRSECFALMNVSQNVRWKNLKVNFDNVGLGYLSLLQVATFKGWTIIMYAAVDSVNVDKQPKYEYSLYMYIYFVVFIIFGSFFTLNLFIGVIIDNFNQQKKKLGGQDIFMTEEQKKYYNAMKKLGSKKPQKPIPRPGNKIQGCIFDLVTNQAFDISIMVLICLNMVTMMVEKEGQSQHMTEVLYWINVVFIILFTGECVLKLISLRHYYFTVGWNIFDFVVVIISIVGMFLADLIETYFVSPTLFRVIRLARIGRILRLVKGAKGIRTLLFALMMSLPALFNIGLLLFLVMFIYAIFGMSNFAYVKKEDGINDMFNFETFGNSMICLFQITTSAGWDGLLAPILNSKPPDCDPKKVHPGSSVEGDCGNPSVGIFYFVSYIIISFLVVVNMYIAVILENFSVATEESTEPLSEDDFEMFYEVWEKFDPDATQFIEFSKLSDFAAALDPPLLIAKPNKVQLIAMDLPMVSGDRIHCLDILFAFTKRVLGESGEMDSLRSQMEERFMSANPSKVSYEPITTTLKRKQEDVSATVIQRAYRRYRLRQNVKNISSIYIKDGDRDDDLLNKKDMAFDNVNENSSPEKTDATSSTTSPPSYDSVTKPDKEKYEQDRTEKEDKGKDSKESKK

Row | SMILES | Nav 1.7-VDB 1 uM [percentage inhibition]
1 | COc1cc(OC(F)(F)F)ccc1-c1ccc2onc(OCc3ncccn3)c2c1 [Example 4, 5-(2-methoxy-4-(trifluoromethoxy)phenyl)-3-(pyrimidin-2-ylmethoxy)benzo[d]isoxazole] | 28.6
2 | Fc1cc(C(F)(F)F)ccc1-c1ccc2onc(OCc3ncccn3)c2c1 [Example 6, 5-(2-fluoro-4-(trifluoromethyl)phenyl)-3-(pyrimidin-2-ylmethoxy)benzo[d]isoxazole] | 15.6
3 | FC(F)(F)Oc1cccc(-c2ccc3onc(OCc4ncccn4)c3c2)c1 [Example 10, 3-(pyrimidin-2-ylmethoxy)-5-(3-(trifluoromethoxy)phenyl)benzo[d]isoxazole] | 10.0
4 | Cc1nnc(COc2noc3ccc(-c4ccc(OC(F)(F)F)cc4)cc23)o1 [Example 99, 3-((5-methyl-1,3,4-oxadiazol-2-yl)methoxy)-5-(4-(trifluoromethoxy)phenyl)benzo[d]isoxazole] | 59.3
